This note sets out measurements from US20030166663A1, “Use” (priority 2001, published 2003).

Where “and” joins values, the source holds several entries; their conditions need not be identical. Equal entries are not always repeated. Where two headings read alike, the source gives them in different places.

Data set [1] has as its system ob/ob mice. Description: Effect of compounds on food intake in ob/ob mice (15 h food consumption, s.c. minipump infusion). The format is in vivo, mouse. The settings on record: for Food intake, % of basal level, Mean: 15 h food consumption; for Inhibition (%) Based on basal (food intake): relative to vehicle. How it is done: Obese (ob/ob) mouse is selected as the primary animal model for screening as this mutant mouse consumes high amounts of food resulting in a high signal to noise ratio. To further substantiate and compare efficacy data, the effect of the compounds on food consumption is also studied in wild type (C57BL/6J) mice. The amount of food consumed during 15 hours of infusion of compounds is recorded.
Male mice (obese C57BL/6JBom-Lep^ob and lean wild-type C57B1/6JBom; Bomholtsgaard, Denmark) 8-9 weeks with an average body weight of 50 g (obese) and 25 g (lean) are used in all the studies. The animals are housed singly in cages at 23±1° C., 40-60 % humidity and have free access to water and standard laboratory chow. The 12/12-h light/dark cycle is set to lights off at 5 p.m. The animals are conditioned for at least one week before start of study.
The test compounds are dissolved in solvents suitable for each specific compound such as cyclodextrin, cyclodextrin/methane sulfonic acid, polyethylene glycol/methane sulfonic acid, or saline. Fresh solutions are made for each study. […] The purity of the test compounds is of analytical grade.
(§1) The animals are weighed at the start of the study and randomized based on body weight. Alzet osmotic minipumps (Model 2001D; infusion rate 8 μl/h) are used and loaded essentially as recommended by the Alzet technical information manual (Alza Scientific Products, 1997; Teeuwes and Yam, 1976). Continuous subcutaneous infusion with 24 hours duration is used. The minipumps are either filled with different concentrations of test compounds dissolved in vehicle or with only vehicle solution and maintained in vehicle pre-warmed to 37° C. (approx. 1 h). The minipumps are implanted subcutaneously in the neck/back region under short acting anesthesia (metofane/enflurane). This surgical procedure lasts approximately 5 min. It takes about 3 h to reach steady state delivery of the compound.
(§2) The weights of the food pellets are measured at 5 p.m. and at […]. for two days before (baseline) and one day after the implantation of the osmotic minipumps. The weighing is performed with a computer assisted Mettler Toledo PR 5002 balance. Occasional spillage is corrected for. At the end of the study the animals are killed by neck dislocation and trunk blood sampled for later analysis of plasma drug concentrations.
Food consumption for 15 hours is measured for the three consecutive days and the percentage of basal level values is derived for each animal from the day before and after treatment. The values are expressed as mean±SD and mean±SEM from eight animals per dose group. Statistical evaluation is performed by Kruskal-Wallis one-way ANOVA using the per cent basal values. If statistical significance is reached at the level of p<0.05, Mann-Whitney U-test for statistical comparison between control and treatment groups is performed.

The nature of data set [2]: Determination of plasma concentration at steady state (Css, tot) in ob/ob mice. It is filed as in vivo, mouse. Conditions: continuous s.c. infusion, read-out: Css, tot (total plasma exposure at steady state). The protocol:
as §1, §2
The plasma sample proteins are precipitated with methanol, centrifuged, and the supernatant is transferred to HPLC vials and injected into the liquid chromatography/mass spectrometric system. The mass spectrometer is set for electrospray positive ion mode and Multiple Reaction Monitoring.
A linear regression analysis of the standards forced through the origin is used to calculate the concentrations of the unknown samples.

Setting [3] is: nominal 10 mg/kg/day s.c. infusion.
The mark [4] stands for this setting: nominal 30 mg/kg/day s.c. infusion.
The mark [5] stands for this setting: nominal 100 mg/kg/day s.c. infusion.
[6] abbreviates: mouse, plasma, subcutaneous, nominal 10 mg/kg/day.
Where [7] appears, read: mouse, plasma, subcutaneous, nominal 30 mg/kg/day.
[8] abbreviates: mouse, plasma, subcutaneous, nominal 100 mg/kg/day.

On to `Cc1c(S(=O)(=O)Nc2ccc3nccc(N4CCN(C)CC4)c3c2)sc2ccc(Cl)cc12` [EXAMPLE 1, 5-chloro-3-methyl-benzo[b]thiophene-2-sulphonic acid (4-[4-methylpiperazin-1-yl]quinolin-6-yl)amide], for which the “Food intake, % of basal level, Mean” value in data set [1] (setting [3]) was 62.5 % of basal level; in data set [1] (setting [4]), 49.3 % of basal level; in data set [1] (setting [5]), 49.9 % of basal level. Besides, the “Inhibition (%) Based on basal (food intake)” value (shortened to “Inhibition (%) Based on basal”) in data set [1] (setting [3]) came to 4.9%; in data set [1] (setting [4]) it was 25.0%; in data set [1] (nominal 30 mg/kg/day s.c. infusion, listed as 5-Chloro-3-methyl-benzo[b]thiophene-2-sulfonic acid (4-[4-methylpiperazin-1-yl]q) it was 25%; in data set [1] (setting [5]), 24.1%; in data set [1] (nominal 100 mg/kg/day s.c. infusion, listed as 5-Chloro-3-methyl-benzo[b]thiophene-2-sulfonic acid (4-[4-methylpiperazin-1-yl]q), 24%. In addition, the figures for the concentration at 24 h in data set [2] (setting [6]), in data set [2] (setting [7]) and in data set [2] (setting [8]) were 1000 nM, 1620 nM and 1810 nM, respectively.
As to `CCCCc1ccc(S(=O)(=O)Nc2ccc3nccc(N4CCNCC4)c3c2)cc1` [EXAMPLE 2, 4-n-butyl-N-(4-piperazin-1-yl-quinolin-6-yl)benzenesulphonamide], the “Food intake, % of basal level, Mean” value in data set [1] (setting [3]) is given as 61.0 % of basal level; in data set [1] (setting [4]), 45.5 % of basal level; in data set [1] (setting [5]) it was 43.6 % of basal level. Besides, the “Inhibition (%) Based on basal” value in data set [1] (setting [3]) turned out to be 6.5%; in data set [1] (setting [4]), 30.2%; in data set [1] (nominal 30 mg/kg/day s.c. infusion, listed as 4-n-Butyl-N-(4-piperazin-1-yl-quinolin-6-yl)benzenesulfonamide), 30%; in data set [1] (setting [5]), 33.2%; in data set [1] (nominal 100 mg/kg/day s.c. infusion, listed as 4-n-Butyl-N-(4-piperazin-1-yl-quinolin-6-yl)benzenesulfonamide), 33%. For the same molecule, the concentration at 24 h in data set [2] (setting [6]) was 370 nM; in data set [2] (setting [7]), 940 nM; in data set [2] (setting [8]) it was 1290 nM.
For the molecule `Clc1cccc(N2CCNCC2)c1` [mCCP, m-chlorophenylpiperazine, reference compound], in data set [1] (setting [3]), the “Food intake, % of basal level, Mean” value is 31.2 % of basal level and 39.4 % of basal level; the “Inhibition (%) Based on basal” value was 52.5% and 39.6%. Further, the concentration at 24 h in data set [2] (nominal 10 mg/kg/day) was 610 nM and 780 nM.
